Test results reported in ChEMBL document CHEMBL1143809, “New bis-N9-(methylphenylmethyl)purine derivatives: synthesis and antitumor activity” (2007).

Experiments:
Format in all cases: functional
[1] = test system: MCF7; assay: Anticancer activity against human MCF7 cells assessed as growth at 100 uM after 48 hrs by SRB protein assay relative to control; conditions: MCF7, 48 h, read-out: Activity
[2] = test system: SF-268; assay: Anticancer activity against human SF268 cells assessed as growth at 100 uM after 48 hrs by SRB protein assay relative to control; conditions: SF-268, 48 h, read-out: Activity
[3] = test system: NCI-H460; assay: Anticancer activity against human NCL-H460 cells assessed as growth at 100 uM after 48 hrs by SRB protein assay relative to control; conditions: NCI-H460, 48 h, read-out: Activity

| Structure (SMILES) | growth at 100 µM [1] [%] | growth at 100 µM [2] [%] | growth at 100 µM [3] [%] |
| --- | --- | --- | --- |
| Clc1ncnc2c1ncn2Cc1ccccc1Cn1cnc2c(Cl)ncnc21 | 78 | 78 | 58 |
| Clc1ncnc2c1ncn2Cc1cccc(Cn2cnc3c(Cl)ncnc32)c1 | 77 | 90 | 65 |
| Nc1ncnc2c1ncn2Cc1cccc(Cn2cnc3c(N)ncnc32)c1 | 109 | 108 | 96 |
| Clc1ncnc2c1ncn2Cc1ccc(Cn2cnc3c(Cl)ncnc32)cc1 | 101 | 86 | 95 |
| Nc1ncnc2c1ncn2Cc1ccc(Cn2cnc3c(N)ncnc32)cc1 | 112 | 96 | 111 |
| Clc1ncnc2c1ncn2Cc1ccc(-c2ccc(Cn3cnc4c(Cl)ncnc43)cc2)cc1 | 67 | 95 | 45 |
| Nc1ncnc2c1ncn2Cc1ccc(-c2ccc(Cn3cnc4c(N)ncnc43)cc2)cc1 | 86 | 50 | 98 |
| Nc1ncnc2c1ncn2Cc1ccccc1Cn1cnc2c(N)ncnc21 | 99 | 99 | 84 |
